According to patent publication US20210395239A1 (Hoffmann-La Roche Inc., priority 2018, published 2021):

Target: T1, human TLR7 (Homo sapiens, UniProt Q9NYK1)
T1 construct: host or cells: HEK293 (HEK-Blue hTLR7)
T1 sequence (Q9NYK1 27-1049): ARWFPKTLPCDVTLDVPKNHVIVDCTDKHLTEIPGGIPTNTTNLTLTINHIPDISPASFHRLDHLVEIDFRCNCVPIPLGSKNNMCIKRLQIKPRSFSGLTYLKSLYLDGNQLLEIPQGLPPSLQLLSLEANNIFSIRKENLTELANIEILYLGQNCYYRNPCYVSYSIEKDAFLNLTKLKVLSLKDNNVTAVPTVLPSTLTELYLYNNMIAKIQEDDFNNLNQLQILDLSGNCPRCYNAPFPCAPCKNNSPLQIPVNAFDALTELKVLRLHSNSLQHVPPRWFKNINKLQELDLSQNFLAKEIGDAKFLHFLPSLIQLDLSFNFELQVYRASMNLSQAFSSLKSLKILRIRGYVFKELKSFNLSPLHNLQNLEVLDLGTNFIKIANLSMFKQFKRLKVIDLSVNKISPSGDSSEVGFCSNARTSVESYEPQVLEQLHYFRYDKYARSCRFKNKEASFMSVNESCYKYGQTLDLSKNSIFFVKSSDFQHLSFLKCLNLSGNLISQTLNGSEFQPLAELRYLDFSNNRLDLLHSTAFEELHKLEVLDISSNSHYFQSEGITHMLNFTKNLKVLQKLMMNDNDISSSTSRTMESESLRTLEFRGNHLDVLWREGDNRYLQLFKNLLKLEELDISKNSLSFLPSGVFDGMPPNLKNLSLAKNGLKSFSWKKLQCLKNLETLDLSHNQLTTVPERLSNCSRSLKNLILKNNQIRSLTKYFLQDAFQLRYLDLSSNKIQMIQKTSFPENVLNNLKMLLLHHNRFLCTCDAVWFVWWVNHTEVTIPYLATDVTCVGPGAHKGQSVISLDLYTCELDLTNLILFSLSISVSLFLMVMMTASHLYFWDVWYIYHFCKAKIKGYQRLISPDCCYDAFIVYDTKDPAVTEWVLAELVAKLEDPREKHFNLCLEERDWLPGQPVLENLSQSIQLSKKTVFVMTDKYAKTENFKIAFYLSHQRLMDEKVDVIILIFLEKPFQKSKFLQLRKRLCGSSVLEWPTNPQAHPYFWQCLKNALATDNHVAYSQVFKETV
Experiment: HEK293-Blue-hTLR-7 cells assay (SEAP reporter, R848 stimulation)
Format: cell-based
Conditions: HEK293-Blue-hTLR7 cells, R848, 20 hrs; read-out: HEK/hTLR7 IC50
In short: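 HEK293-Blue-hTLR7 cells (NF-κB/AP-1-driven SEAP reporter) were stimulated with R848 alongside serially diluted compound at 1% final DMSO for 20 h at 37 °C. Supernatant SEAP was then developed with QUANTI-Blue for 2 h at 37 °C and absorbance read at 620–655 nm; antagonism is measured as reduced reporter signal.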

IC50 [µM] | SMILES
0.016 | C[C@@H]1CN(c2ccc(C#N)c3ncccc23)C[C@H](CN2CCN(c3cc(N4CCN(C)CC4)ncn3)CC2)O1 [Example 21, 5-[(2R,6S)-2-methyl-6-[[4-[6-(4-methylpiperazin-1-yl)pyrimidin-4-yl]piperazin-1-yl]methyl]morpholin-4-yl]quinoline-8-carbonitrile]
0.011 | CO[C@H]1CN(c2nc(C)cc(N3CCN(C[C@H]4CN(c5ccc(C#N)c6ncccc56)C[C@@H](C)O4)CC3)n2)C[C@H]1N [Example 60, 5-[(2R,6S)-2-methyl-6-[[4-[6-methyl-2-[cis-3-amino-4-methoxy-pyrrolidin-1-yl]pyrimidin-4-yl]piperazin-1-yl]methyl]morpholin-4-yl]quinoline-8-carbonitrile]
0.03 | Cc1cc(N2CCN(C[C@H]3CN(c4ccc(C#N)c5ncccc45)C[C@@H](C)O3)CC2)nc(N2C[C@@H]3COC[C@@H](C2)N3)n1 [Example 58, 5-[(2R,6S)-2-methyl-6-[[4-[6-methyl-2-[(1R,5R)-3-oxa-7,9-diazabicyclo[3.3.1]nonan-7-yl]pyrimidin-4-yl]piperazin-1-yl]methyl]morpholin-4-yl]quinoline-8-carbonitrile]
0.028 | C[C@@H]1CN(c2ccc(C#N)c3ncccc23)C[C@H](CN2CCN(c3ccc(N4CC(N)C(F)C4)nc3)CC2)O1 (stereo partly drawn) [Example 44, 5-[(2S,6R)-2-[[4-[6-(3-amino-4-fluoro-pyrrolidin-1-yl)-3-pyridyl]piperazin-1-yl]methyl]-6-methyl-morpholin-4-yl]quinoline-8-carbonitrile]
0.081 | C[C@@H]1CN(c2ccc(C#N)c3ncccc23)C[C@H](CN2CCN(c3cccc(N4CCNCC(O)C4)n3)CC2)O1 (stereo partly drawn) [Example 41, 5-[(2S,6R)-2-[[4-[6-(6-hydroxy-1,4-diazepan-1-yl)-2-pyridyl]piperazin-1-yl]methyl]-6-methyl-morpholin-4-yl]quinoline-8-carbonitrile]
0.016 | C[C@@H]1CN(c2ccc(C#N)c3ncccc23)C[C@H](CN2CCN(c3ccnc(OCCN(C)C)n3)CC2)O1 [Example 30, 5-[(2S,6R)-2-[[4-[2-[2-(dimethylamino)ethoxy]pyrimidin-4-yl]piperazin-1-yl]methyl]-6-methyl-morpholin-4-yl]quinoline-8-carbonitrile]
0.015 | C[C@@H]1CN(c2ccc(C#N)c3ncccc23)C[C@H](CN2CCN(c3nc(N4CCNCC4)ncc3F)CC2)O1 [Example 45, 5-[(2S,6R)-2-[[4-(5-fluoro-2-piperazin-1-yl-pyrimidin-4-yl)piperazin-1-yl]methyl]-6-methyl-morpholin-4-yl]quinoline-8-carbonitrile]
0.016 | C[C@@H]1CN(c2ccc(C#N)c3ncccc23)C[C@H](CN2CCN(c3cccc(NC4CNC4)n3)CC2)O1 [Example 38]
0.01 | C[C@@H]1CN(c2ccc(C#N)c3ncccc23)C[C@H](CN2CCN(c3ccnc(N4CCN(C)CC4)n3)CC2)O1 [Example 22, 5-((2R,6S)-2-methyl-6-((4-(2-(4-methylpiperazin-1-yl)pyrimidin-4-yl)piperazin-1-yl)methyl)morpholino)quinoline-8-carbonitrile]
0.036 | C[C@@H]1CN(c2cc(=O)n(C)c3ncccc23)C[C@H](CN2CC(c3ccc(N4CC(C)(N)C4)cc3)C2)O1 [Example 176, 4-[(2S,6R)-2-[[3-[4-(3-amino-3-methyl-azetidin-1-yl)phenyl]azetidin-1-yl]methyl]-6-methyl-morpholin-4-yl]-1-methyl-1,8-naphthyridin-2-one]
0.028 | C[C@@H]1CN(c2ccc(C#N)n3ncc(F)c23)C[C@H](CN2CCN(c3ccc(C4CNCCO4)cc3F)CC2)O1 (stereo in doubt) [Example 183, 3-fluoro-4-[(2S,6R)-2-[[4-[2-fluoro-4-[(2S)-morpholin-2-yl]phenyl]piperazin-1-yl]methyl]-6-methyl-morpholin-4-yl]pyrazolo[1,5-a]pyridine-7-carbonitrile]
0.012 | C[C@@H]1CN(c2ccc(C#N)c3ncccc23)C[C@H](CN2CCN(c3cnc(N4CCNCC4)nc3)CC2)O1 [Example 12, 5-[(2R,6S)-2-methyl-6-[[4-(2-piperazin-1-ylpyrimidin-5-yl)piperazin-1-yl]methyl]morpholin-4-yl]quinoline-8-carbonitrile]
0.006 | C[C@@H]1CN(c2ccc(C#N)c3ncccc23)C[C@H](CN2CCN(c3ccnc(N4CCN(C(=O)CN(C)C)CC4)n3)CC2)O1 [Example 32, 5-[(2S,6R)-2-[[4-[2-[4-[2-(dimethylamino)acetyl]piperazin-1-yl]pyrimidin-4-yl]piperazin-1-yl]methyl]-6-methyl-morpholin-4-yl]quinoline-8-carbonitrile]
0.026 | C[C@@H]1CN(c2ccc(C#N)c3ncccc23)C[C@H](CN2CCN(c3ccnc(N4CCNCC(O)C4)n3)CC2)O1 (stereo partly drawn) [Example 25, 5-[(2S,6R)-2-[[4-[2-(6-hydroxy-1,4-diazepan-1-yl)pyrimidin-4-yl]piperazin-1-yl]methyl]-6-methyl-morpholin-4-yl]quinoline-8-carbonitrile]
0.027 | C[C@@H]1CN(c2ccc(C#N)c3ncccc23)C[C@H](CN2CCN(c3ccnc(N4CCN(C(=O)C5CCN5)CC4)n3)CC2)O1 (stereo partly drawn) [Example 34, 5-[(2S,6R)-2-[[4-[2-[4-(azetidine-2-carbonyl)piperazin-1-yl]pyrimidin-4-yl]piperazin-1-yl]methyl]-6-methyl-morpholin-4-yl]quinoline-8-carbonitrile]
0.023 | C[C@@H]1CN(c2ccc(C#N)n3ncc(F)c23)C[C@H](CN2CCN(c3ccc([C@@H]4CNCCO4)c(F)c3)CC2)O1 [Example 184, 3-fluoro-4-[(2S,6R)-2-[[4-[3-fluoro-4-[(2R)-morpholin-2-yl]phenyl]piperazin-1-yl]methyl]-6-methyl-morpholin-4-yl]pyrazolo[1,5-a]pyridine-7-carbonitrile]
0.038 | C[C@@H]1CN(c2ccc(C#N)n3ncc(F)c23)C[C@H](CN2CCN(c3ccc(N4CCOC5(CNC5)C4)nc3)CC2)O1 [Example 178, 3-fluoro-4-[(2R,6S)-2-methyl-6-[[4-[6-(5-oxa-2,8-diazaspiro[3.5]nonan-8-yl)-3-pyridyl]piperazin-1-yl]methyl]morpholin-4-yl]pyrazolo[1,5-a]pyridine-7-carbonitrile]
0.006 | C[C@@H]1CN(c2ccc(C#N)n3ncc(F)c23)C[C@H](CN2CCN(c3ccc(N4CC5(CN(C)C5)C4)nc3)CC2)O1 [Example 170, 3-fluoro-4-[(2R,6S)-2-methyl-6-[[4-[6-(6-methyl-2,6-diazaspiro[3.3]heptan-2-yl)-3-pyridyl]piperazin-1-yl]methyl]morpholin-4-yl]pyrazolo[1,5-a]pyridine-7-carbonitrile]
0.013 | Cc1cc(N2CCN(C[C@H]3CN(c4ccc(C#N)c5ncccc45)C[C@@H](C)O3)CC2)nc(N2CCNCC2)n1 [Example 47, 5-[(2R,6S)-2-methyl-6-[[4-(6-methyl-2-piperazin-1-yl-pyrimidin-4-yl)piperazin-1-yl]methyl]morpholin-4-yl]quinoline-8-carbonitrile]
0.008 | CO[C@H]1CN(c2nccc(N3CCN(C[C@H]4CN(c5ccc(C#N)c6ncccc56)C[C@@H](C)O4)CC3)n2)CC1N (stereo in doubt) [Example 53, 5-[(2S,6R)-2-[[4-[2-[(3S,4S)-3-amino-4-methoxy-pyrrolidin-1-yl]pyrimidin-4-yl]piperazin-1-yl]methyl]-6-methyl-morpholin-4-yl]quinoline-8-carbonitrile]
0.014 | C[C@@H]1CN(c2ccc(C#N)n3ncc(F)c23)C[C@H](CN2CCN(c3ccc(N[C@H]4CNC[C@H]4F)nc3)CC2)O1 [Example 167, 3-fluoro-4-[(2S,6R)-2-[[4-[6-[[(3S,4R)-4-fluoropyrrolidin-3-yl]amino]-3-pyridyl]piperazin-1-yl]methyl]-6-methyl-morpholin-4-yl]pyrazolo[1,5-a]pyridine-7-carbonitrile]
0.02 | C[C@@H]1CN(c2ccc(C#N)c3ncccc23)C[C@H](CN2CCN(c3ccc([C@H]4CNCCO4)cc3)CC2)O1 [Example 20, 5-[(2R,6S)-2-methyl-6-[[4-[4-[(2S)-morpholin-2-yl]phenyl]piperazin-1-yl]methyl]morpholin-4-yl]quinoline-8-carbonitrile]
